Results on 25 molecules are retold here after PubChem BioAssay (NCI).

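Cells were grown in 96-well plates and exposed to each compound for 48 hours at five concentrations; endpoints were interpolated linearly between bracketing concentrations, or set to the highest concentration if not reached. GI50 marks 50% less growth. Definition used: TGI = concentration required for complete inhibition of growth.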 A value given as a limit tells only on which side of the number the result lay.

The subject of the first assay is LOX IMVI melanoma. The assay can be described thus: NCI-60 cell line screen, 48 h.
The molecule `O=C1COc2cc(NC(=S)Nc3ccccc3)ccc2N1` showed a TGI of more than 100 µM.

In the case of `O=S(=O)(C1=CC(S(=O)(=O)c2ccccc2)CN(Cc2ccccc2)C1c1cccc2ccccc12)c1ccccc1` (centres undefined), the TGI was more than 69 µM.

In the case of `O=C1C=C(Nc2ccccc2C(=O)CC(=O)C(=O)Nc2cccc([N+](=O)[O-])c2)c2ccccc2C1=O`, the TGI is 23.1 µM.

Molecule `O=C(Nc1ccc(Cl)cc1)C1C(=O)C(=O)N(c2ccc(Cl)cc2)C1=O` (centres undefined) registered a TGI of more than 100 µM.

With `CCC[CH2][Sn]([CH2]CCC)([O]C(=O)CN)[O]C(=O)CN`, the GI50 is 22.1 µM and the TGI worked out at 59.7 µM.

Regarding `O=C(Nc1ccc(C(F)(F)F)cc1[N+](=O)[O-])C(=O)C1NC(=S)NC1=O` (centres undefined), the TGI was more than 100 µM.

In turn, `COc1cc(NCC(C#N)C#N)ccc1N=Nc1ccc(Cl)cc1` registered a TGI of 36.1 µM.

`CC(=O)c1ccc(NC(=O)/C(CC(=O)c2sc(-c3cccnc3)nc2C)=N/NC(N)=O)cc1` displayed a TGI of more than 100 µM.

Molecule `Cc1ccc(S(=O)(=O)OC2CC=CC2)cc1` registered a TGI of more than 100 µM.

In turn, `C=CC[P@]1(=O)O[C@H](c2ccccc2)[C@H](C)N1C` yielded a TGI of more than 100 µM.

Turning to `COC(=O)C(=O)CC(=O)CCn1[nH]c(=O)c(Cl)c(Cl)c1=O`, the TGI was more than 100 µM.

Molecule `OCC12C=CC(C1)c1ccccc12` (centres undefined) registered a TGI of more than 100 µM.

The molecule `COc1ccc(NC(=O)CC/C(CC(=O)c2ccco2)=N/NC(=O)C(N)=O)cc1` registered a TGI of more than 100 µM.

`NC(CCCC(N)P(=O)(O)O)P(=O)(O)O` (centres undefined): the TGI is more than 100 µM.

For the molecule `CCOC(=O)[CH-]C(=O)C12CC3CC(CC(C3)C1)C2.CCOC(=O)[CH-]C(=O)C12CC3CC(CC(C3)C1)C2.CC[O-].CC[O-].[Ti+4]`, the GI50 is more than 100 µM and the TGI is more than 100 µM.

The molecule `CC(=O)C1C(c2ccccc2)C2(C)OC(=O)C(C#N)C12C` (centres undefined) gave a TGI of more than 100 µM.

Take `CC(=O)Oc1cc2c(cc1OC(C)=O)C1(C)CCC2(C)c2cc(OC(C)=O)c(OC(C)=O)cc21`: the TGI was more than 100 µM.

`CCCC1(CC(=O)O)OCCc2c1[nH]c1ccccc21` (centres undefined) returned a TGI of more than 100 µM.

The test system of another assay is HCT-116 colon. The assay can be described thus: NCI-60 cell line screen, 48 h.
For `CCC1=CCN(c2cc(C)ccn2)OC1c1ccc(OC)cc1` (centres undefined), the TGI is 71.8 µM.

For the molecule `CC(=O)Oc1c(C)c(-c2ccccc2)c(C)c(-c2ccccc2)c1C(=S)c1ccccc1`, the TGI was more than 100 µM.

`N#CCC(=O)N/N=C1/C(=O)N(c2ccc(Cl)cc2)C(=O)C(=O)C1c1nc2ccccc2s1` (centres undefined) yielded a TGI of more than 100 µM.

`CCCCCCCCCCCC(=O)OCCOCCOCCOCCOCCOC(=O)CCCCCCCCCCC` gave a TGI of more than 100 µM.

`COc1ccc(C=O)cc1O[Si](C)(C)C(C)(C)C` came in with a TGI of more than 100 µM.

Turning to `O=C1COc2cc(NC(=S)Nc3ccccc3)ccc2N1`, the TGI is more than 100 µM.

With `O=S(=O)(C1=CC(S(=O)(=O)c2ccccc2)CN(Cc2ccccc2)C1c1cccc2ccccc12)c1ccccc1` (centres undefined), the TGI was more than 69 µM.

`O=C1C=C(Nc2ccccc2C(=O)CC(=O)C(=O)Nc2cccc([N+](=O)[O-])c2)c2ccccc2C1=O` gave a TGI of more than 100 µM.

On to `O=C(Nc1ccc(Cl)cc1)C1C(=O)C(=O)N(c2ccc(Cl)cc2)C1=O` (centres undefined), for which the TGI was more than 100 µM.

Take `CCC[CH2][Sn]([CH2]CCC)([O]C(=O)CN)[O]C(=O)CN`: the GI50 is 71.2 µM and the TGI was more than 100 µM.

In the case of `O=C(Nc1ccc(C(F)(F)F)cc1[N+](=O)[O-])C(=O)C1NC(=S)NC1=O` (centres undefined), the TGI was more than 100 µM.

Consider `COc1cc(NCC(C#N)C#N)ccc1N=Nc1ccc(Cl)cc1`, for which the TGI is 62.2 µM.

In turn, `CC(=O)c1ccc(NC(=O)/C(CC(=O)c2sc(-c3cccnc3)nc2C)=N/NC(N)=O)cc1` registered a TGI of 42.5 µM.

As for `Cc1ccc(S(=O)(=O)OC2CC=CC2)cc1`, the TGI is more than 100 µM.

`COC(=O)C(=O)CC(=O)CCn1[nH]c(=O)c(Cl)c(Cl)c1=O` displayed a TGI of more than 100 µM.

Take `OCC12C=CC(C1)c1ccccc12` (centres undefined): the TGI was more than 100 µM.

As for `NC(CCCC(N)P(=O)(O)O)P(=O)(O)O` (centres undefined), the TGI is more than 100 µM.

As to `CCOC(=O)[CH-]C(=O)C12CC3CC(CC(C3)C1)C2.CCOC(=O)[CH-]C(=O)C12CC3CC(CC(C3)C1)C2.CC[O-].CC[O-].[Ti+4]`, the GI50 is more than 100 µM and the TGI was more than 100 µM.

`CC(=O)C1C(c2ccccc2)C2(C)OC(=O)C(C#N)C12C` (centres undefined) returned a TGI of more than 100 µM.

For `C[C@]12CC=CC(=O)[C@@]1(C)CCC(=O)C2`, the TGI is more than 100 µM.

A further assay relates to SNB-75 CNS. The assay can be described thus: NCI-60 cell line screen, 48 h.
Regarding `CCC1=CCN(c2cc(C)ccn2)OC1c1ccc(OC)cc1` (centres undefined), the TGI is more than 100 µM.

In turn, `CC(=O)Oc1c(C)c(-c2ccccc2)c(C)c(-c2ccccc2)c1C(=S)c1ccccc1` returned a TGI of more than 100 µM.

In turn, `N#CCC(=O)N/N=C1/C(=O)N(c2ccc(Cl)cc2)C(=O)C(=O)C1c1nc2ccccc2s1` (centres undefined) showed a TGI of 63.7 µM.

For the molecule `CCCCCCCCCCCC(=O)OCCOCCOCCOCCOCCOC(=O)CCCCCCCCCCC`, the TGI is more than 100 µM.

As for `COc1ccc(C=O)cc1O[Si](C)(C)C(C)(C)C`, the TGI is more than 100 µM.

On to `CC1(O)C(C)(O)C2(C)O[Te]3(OC12C)OC1(C)C(C)(O)C(C)(O)C1(C)O3` (centres undefined), for which the TGI was more than 100 µM.

`O=C1COc2cc(NC(=S)Nc3ccccc3)ccc2N1`: the TGI is more than 100 µM.

Regarding `O=S(=O)(C1=CC(S(=O)(=O)c2ccccc2)CN(Cc2ccccc2)C1c1cccc2ccccc12)c1ccccc1` (centres undefined), the TGI is more than 69 µM.

For `O=C1C=C(Nc2ccccc2C(=O)CC(=O)C(=O)Nc2cccc([N+](=O)[O-])c2)c2ccccc2C1=O`, the TGI was more than 100 µM.

As for `O=C(Nc1ccc(Cl)cc1)C1C(=O)C(=O)N(c2ccc(Cl)cc2)C1=O` (centres undefined), the TGI was more than 100 µM.

Take `CCC[CH2][Sn]([CH2]CCC)([O]C(=O)CN)[O]C(=O)CN`: the GI50 is 29.6 µM and the TGI was more than 100 µM.

For `O=C(Nc1ccc(C(F)(F)F)cc1[N+](=O)[O-])C(=O)C1NC(=S)NC1=O` (centres undefined), the TGI turned out to be 97.2 µM.

`COc1cc(NCC(C#N)C#N)ccc1N=Nc1ccc(Cl)cc1` returned a TGI of 90.1 µM.

`Cc1ccc(S(=O)(=O)OC2CC=CC2)cc1` showed a TGI of more than 100 µM.

Take `C=CC[P@]1(=O)O[C@H](c2ccccc2)[C@H](C)N1C`: the TGI was more than 100 µM.

`COC(=O)C(=O)CC(=O)CCn1[nH]c(=O)c(Cl)c(Cl)c1=O` had a TGI of more than 100 µM.

On to `COc1ccc(NC(=O)CC/C(CC(=O)c2ccco2)=N/NC(=O)C(N)=O)cc1`, for which the TGI was more than 100 µM.

In the case of `NC(CCCC(N)P(=O)(O)O)P(=O)(O)O` (centres undefined), the TGI is more than 100 µM.

Regarding `CCOC(=O)[CH-]C(=O)C12CC3CC(CC(C3)C1)C2.CCOC(=O)[CH-]C(=O)C12CC3CC(CC(C3)C1)C2.CC[O-].CC[O-].[Ti+4]`, the GI50 was 36.9 µM and the TGI is more than 100 µM.

Consider `CC(=O)C1C(c2ccccc2)C2(C)OC(=O)C(C#N)C12C` (centres undefined), for which the TGI was more than 100 µM.

With `C[C@]12CC=CC(=O)[C@@]1(C)CCC(=O)C2`, the TGI was more than 100 µM.

`CC(=O)Oc1cc2c(cc1OC(C)=O)C1(C)CCC2(C)c2cc(OC(C)=O)c(OC(C)=O)cc21` showed a TGI of 91.7 µM.

Regarding `CCCC1(CC(=O)O)OCCc2c1[nH]c1ccccc21` (centres undefined), the TGI is more than 100 µM.

A further assay deals with OVCAR-8 ovarian. The assay can be described thus: NCI-60 cell line screen, 48 h.
In turn, `CCC1=CCN(c2cc(C)ccn2)OC1c1ccc(OC)cc1` (centres undefined) gave a TGI of more than 100 µM.

In the case of `CC(=O)Oc1c(C)c(-c2ccccc2)c(C)c(-c2ccccc2)c1C(=S)c1ccccc1`, the TGI was more than 100 µM.

Molecule `N#CCC(=O)N/N=C1/C(=O)N(c2ccc(Cl)cc2)C(=O)C(=O)C1c1nc2ccccc2s1` (centres undefined) came in with a TGI of more than 100 µM.

`CCCCCCCCCCCC(=O)OCCOCCOCCOCCOCCOC(=O)CCCCCCCCCCC`: the TGI was more than 100 µM.

Molecule `COc1ccc(C=O)cc1O[Si](C)(C)C(C)(C)C` showed a TGI of more than 100 µM.

`CC1(O)C(C)(O)C2(C)O[Te]3(OC12C)OC1(C)C(C)(O)C(C)(O)C1(C)O3` (centres undefined): the TGI was 32 µM.

As to `O=C1COc2cc(NC(=S)Nc3ccccc3)ccc2N1`, the TGI was more than 100 µM.

Molecule `O=S(=O)(C1=CC(S(=O)(=O)c2ccccc2)CN(Cc2ccccc2)C1c1cccc2ccccc12)c1ccccc1` (centres undefined) displayed a TGI of more than 69 µM.

Take `O=C1C=C(Nc2ccccc2C(=O)CC(=O)C(=O)Nc2cccc([N+](=O)[O-])c2)c2ccccc2C1=O`: the TGI was more than 100 µM.

The molecule `O=C(Nc1ccc(Cl)cc1)C1C(=O)C(=O)N(c2ccc(Cl)cc2)C1=O` (centres undefined) returned a TGI of more than 100 µM.

For `CCC[CH2][Sn]([CH2]CCC)([O]C(=O)CN)[O]C(=O)CN`, the GI50 is 69 µM and the TGI is more than 100 µM.

Turning to `O=C(Nc1ccc(C(F)(F)F)cc1[N+](=O)[O-])C(=O)C1NC(=S)NC1=O` (centres undefined), the TGI is more than 100 µM.

Turning to `COc1cc(NCC(C#N)C#N)ccc1N=Nc1ccc(Cl)cc1`, the TGI is more than 100 µM.

`CC(=O)c1ccc(NC(=O)/C(CC(=O)c2sc(-c3cccnc3)nc2C)=N/NC(N)=O)cc1` showed a TGI of more than 100 µM.

For the molecule `Cc1ccc(S(=O)(=O)OC2CC=CC2)cc1`, the TGI is more than 100 µM.

In turn, `C=CC[P@]1(=O)O[C@H](c2ccccc2)[C@H](C)N1C` yielded a TGI of more than 100 µM.

In turn, `COC(=O)C(=O)CC(=O)CCn1[nH]c(=O)c(Cl)c(Cl)c1=O` returned a TGI of more than 100 µM.

Take `OCC12C=CC(C1)c1ccccc12` (centres undefined): the TGI was more than 100 µM.

The molecule `COc1ccc(NC(=O)CC/C(CC(=O)c2ccco2)=N/NC(=O)C(N)=O)cc1` yielded a TGI of more than 100 µM.

Take `NC(CCCC(N)P(=O)(O)O)P(=O)(O)O` (centres undefined): the TGI is more than 100 µM.

For `CCOC(=O)[CH-]C(=O)C12CC3CC(CC(C3)C1)C2.CCOC(=O)[CH-]C(=O)C12CC3CC(CC(C3)C1)C2.CC[O-].CC[O-].[Ti+4]`, the GI50 was more than 100 µM and the TGI was more than 100 µM.

`CC(=O)C1C(c2ccccc2)C2(C)OC(=O)C(C#N)C12C` (centres undefined): the TGI is more than 100 µM.

For `C[C@]12CC=CC(=O)[C@@]1(C)CCC(=O)C2`, the TGI was more than 100 µM.

In turn, `CC(=O)Oc1cc2c(cc1OC(C)=O)C1(C)CCC2(C)c2cc(OC(C)=O)c(OC(C)=O)cc21` yielded a TGI of more than 100 µM.

As to `CCCC1(CC(=O)O)OCCc2c1[nH]c1ccccc21` (centres undefined), the TGI is more than 100 µM.
